Measured values published in ChEMBL document CHEMBL1145770, “Efficient synthesis of 3-trifluoromethylphenyldiazirinyl oleic acid derivatives and their biological activity for protein kinase C” (Bioorg Med Chem Lett, 2003).

Molecular target: Protein kinase C alpha type (Homo sapiens) (UniProt P17252)
Assay: Effect on diacylglycerol induced (DAG) PKC activation at 1-10 uM
Type: functional

O=C(O)CCCCCCC/C=C/CCCCCCCCOc1cc(C2(C(F)(F)F)N=N2)ccc1I
Activity: 40%
